Holding throughout (assay type): functional, organism-based
Assay [1] is filed under the species Ovis aries. Nature of the assay: The concentration effective to cause 50% hemolysis with sensitized sheep erythrocytes in the absence of complement.
The species entered for assay [2] is Ovis aries. Nature of the assay: The concentration required to inhibit complement mediated hemolysis of sensitized sheep RBC; not active.
The species entered for assay [3] is Ovis aries. Nature of the assay: Concentration effective to cause 50% hemolysis with sensitized sheep erythrocytes in the absence of complement.
The species named for assay [4] is Ovis aries. Nature of the assay: The concentration required to inhibit complement mediated hemolysis of sensitized sheep RBC.
Assay [5] is filed under the species Ovis aries. Nature of the assay: Concentration required to inhibit complement mediated hemolysis of sensitized sheep RBC.

By EC50 is commonly meant the concentration at which the effect is half-maximal. A word on the IC50: it is the concentration that gives 50% inhibition. For `COc1cccc(C(=O)O)c1`, the EC50 in assay [1] is 2.96 mM. Further, the IC50 result in assay [2] is “Not Active”. As to `CCOc1cccc(C=O)c1`, in assay [3], the EC50 is above 4 mM. Further, in assay [4], the 50% inhibitory concentration (IC50) came to 1000 µM. `O=Cc1cccc(Oc2ccccc2)c1`: the EC50 in assay [1] is above 0.0033 mM. Also, the IC50 in assay [4] came out at 1390 µM. Consider `COc1cccc(C=O)c1`, for which, in assay [1], the EC50 is above 4.41 mM. Moreover, the IC50 in assay [5] turned out to be 919 µM.

Consider `CCOc1cccc(-c2nn[nH]n2)c1`, for which, in assay [1], the EC50 stood at 2.21 mM. The IC50 in assay [4] amounted to 631 µM.

For `COc1cccc(-c2nn[nH]n2)c1`, the 50% effective concentration (EC50) in assay [1] was above 3.41 mM. The IC50 in assay [4] was 1560 µM. Regarding `CCOc1cccc(C(=O)O)c1`, the half-maximal effective concentration (EC50) in assay [1] is 2.53 mM. For the same compound, the IC50 entry in assay [2] was “Not Active”. Take `c1ccc(Oc2cccc(-c3nn[nH]n3)c2)cc1`: the concentration giving a half-maximal response (EC50) in assay [1] was 0.954 mM. In addition, the IC50 in assay [4] stood at 798 µM. On the same counts, the results for `O=C(O)c1cccc(Oc2ccccc2)c1` [M-PHENOXYBENZOIC ACID FOR CIS-ISOMER] are above 2.8 mM and 1400 µM. As for `CC1(C)CC[C@]2(C(=O)O)CC[C@]3(C)C(=CC[C@@H]4[C@@]5(C)CC[C@H](O)C(C)(C)[C@@H]5CC[C@]43C)[C@@H]2C1` [OLEANOLIC_ACID], the IC50 in assay [4] worked out at 76.6 µM. On the same count and under the same terms, as for `C[C@H]1[C@H](C)CC[C@]2(C(=O)O)CC[C@]3(C)C(=CC[C@@H]4[C@@]5(C)CC[C@H](O)C(C)(C)[C@@H]5CC[C@]43C)[C@H]12` [URSOLIC ACID], the figure is 54.7 µM.

Values taken from ChEMBL document CHEMBL1136673, “Synthesis of low molecular weight compounds with complement inhibition activity” (Bioorg Med Chem Lett, 2003).
